Legend:
OVA sensitized mice [1] = assay: Ovalbumin induced allergic inflammation, acute model (AHR/Penh, BAL eosinophils); format: in vivo, mouse; settings: for % Eosinophils (BAL) / Penh (100 mg/mL methacholine): day 28
Protocol: (§1) In the mouse model of allergic inflammation, mice are sensitized and challenged with aerosolized chicken ovalbumin (OVA). Airway responsiveness is assessed by inducing airflow obstruction using a noninvasive method whereby unrestrained conscious OVA sensitized mice are placed into the main chamber of a plethysmograph (Buxco Electronics, Inc. Troy, N.Y.) and challenged with aerosolized methacholine. Pressure difference between this chamber and a reference chamber is used to extrapolate minute volume, breathing frequency and enhanced pause (Penh). Penh is a dimensionless parameter that is a function of total pulmonary airflow (i.e. the sum of the airflow in the upper and lower respiratory tracts) during the respiratory cycle of a mouse and is […] when airflow is greater. This parameter closely correlates with lung resistance as measured by traditional, invasive techniques using ventilated animals (Hamelmann et al., 1997, Am. J. Respir. Crit. Care Med. 156:766-775).
The mouse model of allergic inflammation was used to test the efficacy of an inhaled antisense oligonucleotide targeted to mouse IL-4R alpha. A mismatched IL-4R alpha oligonucleotide (mismatch control oligonucleotide) was used as a negative control. Male Balb/c mice 8-10 weeks old (Charles River Laboratory, Taconic Farms, N.Y.) were maintained in micro-isolator cages housed in a specific pathogen free (SPF) facility. The sentinel cages within the animal colony surveyed negative for viral antibodies and the presence of known mouse pathogens.
For the acute model of allergic inflammation, mice were sensitized with 20 μg of alum-precipitated OVA was injected intraperitoneally on days 0 and 14. On days 24, 25 and 26, animals were exposed for 20 minutes to 1% OVA (in saline) by ultrasonic nebulization. On days 17, 19, 21, 24 and 26 animals were dosed with vehicle alone (saline), 1 μg/kg or 10 μg/kg of ISIS 231894 or the mismatch control oligonucleotide. Oligonucleotides or vehicle were suspended in 0.9% sodium chloride and delivered via inhalation using a nose-only aerosol delivery exposure system. A Lovelace nebulizer set at a flow rate of 1.4 liter per minute feeding into a total flow rate of 10 liters per minute was used to deliver the oligonucleotide. The exposure chamber was equilibrated with an oligonucleotide aerosol solution for 5 minutes before mice were placed in a restraint tube attached to the chamber. Restrained mice were treated for a total of 10 minutes. Analysis was performed on day 28.
Dendritic cells, eosinophils, macrophages and epithelial cells recovered from collagenase digested lung were analyzed for expression of IL-4R alpha protein by flow cytometry. […] A second experiment, in which mice were dosed with 10 μg/kg ISIS 231894, confirmed the efficacy of ISIS 231894 to decrease AHR and eosinophilia in the acute model.

OVA sensitized mice [2] = assay: Mouse model of allergic inflammation, rechallenge model (AHR/Penh, BAL eosinophils, cytokines); format: in vivo
Protocol: as §1
(§2) The rechallenge model of allergic inflammation includes a second series of nebulized OVA challenges on days 66 and 67 in addition to the sensitization and challenge steps of the acute model. This model allows for the evaluation of the target's role in a recall response, as opposed to its role as an initiator molecule. In the rechallenge model, mice were treated with 10, 100 or 500 μg/kg of either ISIS 231894 or the mismatch control oligonucleotide on days 52, 54, 56, 59 and 61, subsequent to the onset and resolution of the OVA-induced acute inflammatory response, delivered by nose only inhalation. The study endpoints were similar to those in the acute model, and included Penh response (i.e. AHR reduction), inflammatory cells and cytokines in BAL (determined by ELISA), mucus accumulation (as determined by periodic acid-Schiff base [PAS] staining in lungs), lung histology and IL-4R alpha protein reduction in lung epithelial and inflammatory cells (as determined by flow cytometry). The results are shown below in Tables 5 and 6.

IL-4R alpha protein = IL-4R alpha protein on lung cells by flow cytometry, rechallenge model; format: in vivo, mouse
Protocol: as §2

OVA sensitized mice [3] = assay: Acute allergic inflammation mouse model with inhaled budesonide and/or ISIS 231894; format: in vivo; settings: 1 μg/kg ISIS 231894 alone (Table 9)
Protocol: In the mouse model of allergic inflammation, mice are sensitized and challenged with aerosolized chicken ovalbumin (OVA). Airway responsiveness is assessed by inducing airflow obstruction using a noninvasive method whereby unrestrained conscious OVA sensitized mice are placed into the main chamber of a plethysmograph (Buxco Electronics, Inc. Troy, N.Y.) and challenged with aerosolized methacholine. Pressure difference between this chamber and a reference chamber is used to extrapolate minute volume, breathing frequency and enhanced pause (Penh). Penh is a dimensionless parameter that is a function of total pulmonary airflow (i.e. the sum of the airflow in the upper and lower respiratory tracts) during the respiratory cycle of a mouse and is lower when airflow is greater.
The acute mouse model of allergic inflammation was used to determine if co-administration of inhaled IL-4R alpha antisense oligonucleotide would enhance the activity of inhaled budesonide, or reduce the dose required to produce anti-inflammatory activity. As described in Example 6, mice were sensitized with alum-precipitated OVA at day 0 and day 14 and nebulized with OVA in saline on days 24, 25 and 26. All mice were analyzed on day 28. Budesonide (0.3, 3, 30, and 300 μg/kg dissolved in PBS Containing 20% DMSO) was administered by nose-only aerosol exposure beginning on day 23 (24 and 20 hours before OVA exposure) and then daily through day 26, one hour prior to daily OVA exposure. The 30 μg/kg dose was also administered twice a day (bid) from day 23-26 as a separate group. As in Example 6, ISIS 231894 was administered by nose-only aerosol exposure at day 17, 19, 21, 23 and 26.
The effect of budesonide and/or ISIS 231894 treatment on AHR, BAL eosinophil infiltration and mucus accumulation (number of PAS-positive airways) were determined.

OVA sensitized mice [4] = assay: Allergic rhinitis mouse model, intranasal administration; format: in vivo
Protocol: In a mouse model of allergic rhinitis, animals were sensitized intraperitoneally with alum-precipitated OVA on days 1, 5, 10 and 15. OVA diluted with saline was administered intranasally (25 μL of 500 μg OVA in each nare) daily, on days 18-22, 25-29, and 32-35. ISIS 231894 and budesonide were administered intranasally, with budesonide administration one hour before each intranasal OVA challenge. ISIS 231894 was administered on days 11, 13, 15, and one hour before each intranasal OVA challenge. Endpoints were evaluated on day 36 and included nasal mucus accumulation (nasal histopathology) nasal eosinophilia, neutrophilia (by nasal lavage analysis and microscopic eosinophil counts in epithelial tissue) and allergic symptoms (numbers of sneezes and nose-rubs observed over a fixed time period).

[5] = Lung concentration, lung half life and tolerability of inhaled oligonucleotide in mice
[6] = Table 11, 0.01 mg/kg intranasal

ISIS 231894: lead antisense oligonucleotide targeted to mouse IL-4R alpha; CCGCTGTTCTCAGGTGACAT; SEQ ID NO: 24; 2'-MOE gapmer, phosphorothioate (all phosphorothioate, sugars by position and methylation of C not given here; 2'-MOE gapmer)
eosinophil infiltration in BAL fluid, in words (OVA sensitized mice [1]): significant decrease | pulmonary function: lung resistance and compliance, in words (OVA sensitized mice [1]): Significant improvement | % Eosinophils (BAL) (OVA sensitized mice [1]; 1 μg/kg inhaled): 35% | Penh (100 mg/mL methacholine) (OVA sensitized mice [1]; 1 μg/kg inhaled): 6 | % Eosinophils (BAL) (OVA sensitized mice [1]; 10 μg/kg inhaled): 35% | Penh (100 mg/mL methacholine) (OVA sensitized mice [1]; 10 μg/kg inhaled): 4.5 | methacholine-induced AHR (Penh, whole body plethysmography), in words (OVA sensitized mice [1]; 1 and 10 μg/kg inhaled): significant, dose dependent suppression | percentage of eosinophils in BAL fluid vs mismatch control, in words (OVA sensitized mice [2]): significantly reduced | lung IL-5 mRNA, in words (OVA sensitized mice [2]; 10 μg and 100 μg doses): inhibited | % Eosinophils (BAL) (OVA sensitized mice [2]; 10 μg/kg inhaled): 22% | Penh (100 mg/mL methacholine) (OVA sensitized mice [2]; 10 μg/kg inhaled): 3 | % Eosinophils (BAL) (OVA sensitized mice [2]; 100 μg/kg inhaled): 18% | Penh (100 mg/mL methacholine) (OVA sensitized mice [2]; 100 μg/kg inhaled): 3.5 | % Eosinophils (BAL) (OVA sensitized mice [2]; 500 μg/kg inhaled): 15% | Penh (100 mg/mL methacholine) (OVA sensitized mice [2]; 500 μg/kg inhaled): 3.5 | methacholine-induced AHR (Penh) vs vehicle control, in words (OVA sensitized mice [2]; all three doses (10, 100, 500 μg/kg)): significant reduction | cytokines KC, MCP-1, IL-5 and IL-13 in BAL fluid vs vehicle control, in words (OVA sensitized mice [2]; doses of 100 μg and 500 μg, ELISA): significantly reduced expression | target protein (IL-4R alpha), Dendritic cells (IL-4R alpha protein; 10 μg/kg inhaled): 25 % positive cells | target protein (IL-4R alpha), Macrophages/Eosinophils (IL-4R alpha protein; 10 μg/kg inhaled): 18 % positive cells | target protein (IL-4R alpha), Dendritic cells (IL-4R alpha protein; 100 μg/kg inhaled): 18 % positive cells | target protein (IL-4R alpha), Macrophages/Eosinophils (IL-4R alpha protein; 100 μg/kg inhaled): 20 % positive cells | target protein (IL-4R alpha), Dendritic cells (IL-4R alpha protein; 500 μg/kg inhaled): 10 % positive cells | target protein (IL-4R alpha), Macrophages/Eosinophils (IL-4R alpha protein; 500 μg/kg inhaled): 17 % positive cells | IL-4R alpha surface expression on lung eosinophils, macrophages and dendritic cells, in words (IL-4R alpha protein; flow cytometry): reduced the amount of IL-4R alpha surface expression | % Eosinophils (BAL) (OVA sensitized mice [3]): 27% | PAS+ airways (mucus accumulation) (OVA sensitized mice [3]): 21 | Penh (100 mg/mL methacholine) (OVA sensitized mice [3]): 6.2 | % Nasal lavage eosinophils (OVA sensitized mice [4]; [6]): 12% | % Nasal lavage neutrophils (OVA sensitized mice [4]; [6]): 16% | Nasal rubs (OVA sensitized mice [4]; [6]): 0.8 per 5 min | Sneezes (OVA sensitized mice [4]; [6]): 2.5 per 5 min | Tissue eosinophils (OVA sensitized mice [4]; [6]): 438 per mm^2 | % Nasal lavage eosinophils (OVA sensitized mice [4]; Table 11, 0.1 mg/kg intranasal): 2% | % Nasal lavage neutrophils (OVA sensitized mice [4]; Table 11, 0.1 mg/kg intranasal): 5% | Nasal rubs (OVA sensitized mice [4]; Table 11, 0.1 mg/kg intranasal): 0.3 per 5 min | Sneezes (OVA sensitized mice [4]; Table 11, 0.1 mg/kg intranasal): 1.9 per 5 min | Tissue eosinophils (OVA sensitized mice [4]; Table 11, 0.1 mg/kg intranasal): 240 per mm^2 | % Nasal lavage eosinophils (OVA sensitized mice [4]; Table 11, 1 mg/kg intranasal): 5% | % Nasal lavage neutrophils (OVA sensitized mice [4]; Table 11, 1 mg/kg intranasal): 13% | Nasal rubs (OVA sensitized mice [4]; Table 11, 1 mg/kg intranasal): 0.5 per 5 min | Sneezes (OVA sensitized mice [4]; Table 11, 1 mg/kg intranasal): 1.0 per 5 min | Tissue eosinophils (OVA sensitized mice [4]; Table 11, 1 mg/kg intranasal): 101 per mm^2 | % Nasal lavage eosinophils (OVA sensitized mice [4]; Table 11, 10 mg/kg intranasal): 9% | % Nasal lavage neutrophils (OVA sensitized mice [4]; Table 11, 10 mg/kg intranasal): 14% | Nasal rubs (OVA sensitized mice [4]; Table 11, 10 mg/kg intranasal): 1.1 per 5 min | Sneezes (OVA sensitized mice [4]; Table 11, 10 mg/kg intranasal): 4.8 per 5 min | Tissue eosinophils (OVA sensitized mice [4]; Table 11, 10 mg/kg intranasal): 298 per mm^2 | nasal eosinophilia, neutrophilia and allergic symptoms (sneezes and nose rubs), in words (OVA sensitized mice [4]; allergic rhinitis model, intranasal, alone and in combination): reduce nasal eosinophilia, neutrophilia and allergic symptoms | effect of once weekly dosing on AHR and airway inflammation, in words ([5]; mice with well established allergen-induced pulmonary inflammation): reduced AHR and airway inflammation | tolerability of intrapulmonary aerosol doses ([5]; mice, doses up to 1 mg/kg): well-tolerated

Source: US20100056606A1, “Combination therapy using budesonide and antisense oligonucleotide targeted to IL4-receptor alpha” (ISIS Pharmaceuticals, Inc., priority 2005, published 2010)
